Several values for one entry are separate records, joined by “and”; a condition that tells them apart may be missing. Identical values can stand only once. Counter-ions that a name gives are not always drawn.
System: Aβ(1-42)
Experiment: Cell-based γ-secretase assay, Aβ(42) detection
Design: species or system Human
Settings: Homo sapiens, SH-SY5Y, SH-SY5Y cells overexpressing SPA4CT; two values in a cell = individual enantiomers; read-out: Aβ42 IC50
Protocol: Cell-Based γ-Secretase Assay
Human SH-SY5Y neuroblastoma cells overexpressing the direct γ-secretase substrate SPA4CT were induced with sodium butyrate (10 mM) for 4 hours prior to plating. Cells were plated at 35,000 cells/well/100 μl in 96-well plates in phenol red-free MEM/10% FBS, 50 mM HEPES, 1% Glutamine and incubated for 2 hrs at 37° C., 5% CO2.
Compounds for testing were diluted into Me2SO to give a ten point dose-response curve. Typically 10 μl of these diluted compounds in Me2SO were further diluted into 182 μl dilution buffer (phenol red-free MEM/10% FBS, 50 mM HEPES, 1% Glutamine) and 10 μl of each dilution was added to the cells in 96-well plates (yielding a final Me2SO concentration of 0.5%). Appropriate vehicle and inhibitor controls were used to determine the window of the assay.
After incubation overnight at 37° C., 5% CO2, 25 μl and 50 μl media were transferred into a standard Meso avidin-coated 96-well plate for detection of Aβ(40) and Aβ(42) peptides, respectively. 25 μl Meso Assay buffer (PBS, 2% BSA, 0.2% Tween-20) was added to the Aβ(40) wells followed by the addition of 25 μl of the respective antibody premixes to the wells:
Aβ(42) premix: 1 μg/ml ruthenylated G2-11 antibody, 4 μg/ml; and biotinylated 4G8 antibody diluted in Origen buffer
(Biotinylated 4G8 antibody supplied by Signet Pathology Ltd; G2-10 and G2-11 antibodies supplied by Chemicon)
After overnight incubation of the assay plates on a shaker at 4° C., the Meso Scale Sector 6000 Imager was calibrated according to the manufacturer's instructions. After washing the plates 3 times with 150 μl of PBS per well, 150 μl Meso Scale Discovery read buffer was added to each well and the plates were read on the Sector 6000 Imager according to the manufacturer's instructions.
LD50 and IC50 values for inhibition of Aβ(40) and Aβ(42) were calculated by nonlinear regression fit analysis using the appropriate software (eg. Excel fit). The total signal and the background were defined by the corresponding Me2SO and inhibitor controls.

Question: With COc1cc(-c2cn(C(F)(F)C(=O)NCc3ccc(F)cc3)nn2)ccc1-n1cnc(C)c1 [Example 9, 2,2-Difluoro-N-(4-fluoro-benzyl)-2-{4-[3-methoxy-4-(4-methyl-imidazol-1-yl)-phenyl]-[1,2,3]triazol-1-yl}-acetamide trifluoroacetate salt] as the compound, how does the IC50 read?
Answer: 933 nM

Question: With COc1cc(-c2cn(CC(=O)N3CCCC4CCCCC43)nn2)ccc1-n1cnc(C)c1 (stereo not shown) [Example 8, 2-{4-[3-Methoxy-4-(4-methyl-imidazol-1-yl)-phenyl]-[1,2,3]triazol-1-yl}-1-(octahydro-quinolin-1-yl)-ethanone trifluoroacetate salt] as the compound, how does the IC50 read?
Answer: 1070 nM

Question: COc1cc(-c2cn(CSc3ccccc3)nn2)ccc1-n1cnc(C)c1 [Example 4, 4-[3-Methoxy-4-(4-methyl-imidazol-1-yl)-phenyl]-1-phenylsulfanylmethyl-1H-[1,2,3]triazole trifluoroacetate salt] was tested. Which IC50 did it give?
Answer: 529 nM

Question: COc1cc(-c2cn(CC(=O)N(CC(F)(F)F)c3ccc(F)c(Cl)c3)nn2)ccc1-n1cnc(C)c1 [Example 12, N-(3-chloro-4-fluorophenyl)-2-{4-[3-methoxy-4-(4-methyl-1H-imidazol-1-yl)phenyl]-1H-1,2,3-triazol-1-yl}-N-(2,2,2-trifluoroethyl)acetamide trifluoroacetate salt] was tested. Which IC50 did it give?
Answer: 84 nM

Question: For COc1cc(-c2cn(C(F)(F)c3ccc(C(F)F)cc3)nn2)ccc1-n1cnc(C)c1 [Example 7, 1-[(4-Difluoromethyl-phenyl)-difluoro-methyl]-4-[3-methoxy-4-(4-methyl-imidazol-1-yl)-phenyl]-1H-[1,2,3]triazole trifluoracetate salt], which IC50 is on record?
Answer: 2240 nM

Question: COc1cc(-c2cn(CC(=O)N(c3ccccc3)C3CCCCC3)nn2)ccc1-n1cnc(C)c1 [Example 1, N-cyclohexyl-2-{4-[3-methoxy-4-(4-methyl-imidazol-1-yl)-phenyl]-1,2,3-triazol-1-yl}-N-phenyl-acetamide] was tested. Which IC50 did it give?
Answer: 616 nM

Question: How did the IC50 turn out when COc1cc(-c2cn(C(C)c3ccccc3)nn2)ccc1-n1cnc(C)c1 (stereo not shown) [Example 5, 4-[3-Methoxy-4-(4-methyl-imidazol-1-yl)-phenyl]-1-(1-phenyl-ethyl)-1H-[1,2,3]triazole trifluoroacetate salt] was run?
Answer: 2660 nM

Same assay, conditions: Homo sapiens, SH-SY5Y, read-out: Aβ42 IC50

Question: With COc1cc(-c2cn(Cc3ccc(-c4nc5ccccc5o4)cc3)nn2)ccc1-n1cnc(C)c1 [Example 6, 2-(4-{4-[3-Methoxy-4-(4-methyl-imidazol-1-yl)-phenyl]-[1,2,3]triazol-1-ylmethyl}-phenyl)-benzooxazole trifluoroacetate salt] as the compound, how does the IC50 read?
Answer: 177 nM

Question: For COc1cc(-c2cn(Cc3ccc(C(C)(C)C)cc3)nn2)ccc1-n1cnc(C)c1 [Example 3, 1-(4-tert-butyl-benzyl)-4-[3-methoxy-4-(4-methyl-imidazole-1-yl)-phenyl]-1H-[1,2,3]triazole trifluoroacetate salt], which IC50 is on record?
Answer: 310 nM

Same assay, conditions: SH-SY5Y cells overexpressing SPA4CT; two values in a cell = individual enantiomers; read-out: Aβ42 IC50

Question: Which IC50 does the source give for COc1cc(-c2cn(C3CCc4ccccc4NC3=O)nn2)ccc1-n1cnc(C)c1 (racemic) [Example 2, (R) and (S)-3-{4-[3-methoxy-4-(4-methyl-imidazol-1-yl)-phenyl]-1,2,3-triazol-1-yl}-1,3,4,5-tetrahydro-1-benzazepin-2-one] here?
Answer: 386 nM and 1330 nM

Reference: US8242150B2, “Triazole derivatives for treating alzheimer'S disease and related conditions” (Merck Sharp & Dohme Corp., priority 2007, dated 2012)
